In ChEMBL document CHEMBL1944611, “Genistein binding mode to doubly nicked dumbbell DNA. Dynamic and diffusion ordered NMR study” (J Med Chem, 2011):

Tests used:
Format in all cases: nucleic-acid assay
Nucleic Acid [1] = assay: Binding affinity to Doubly nicked dumbbell DNA 5'-TCGAACGC/iSp18/GCTG/3Phos/-3' at 1 mM compound concentration and pH 6
Nucleic Acid [2] = assay: Binding affinity to Doubly nicked dumbbell DNA 5'-TCGAACGC/iSp18/GCTG/3Phos/-3' at 1.9 mM DNA concentration and pH 6
Nucleic Acid [3] = assay: Binding affinity to Doubly nicked dumbbell DNA 5'-TCGAACGC/iSp18/GCTG/3Phos/-3' at 1 mM compound concentration and pH 8.6
Nucleic Acid [4] = assay: Binding affinity to Doubly nicked dumbbell DNA 5'-TCGAACGC/iSp18/GCTG/3Phos/-3' at 1 mM DNA concentration and pH 8.4
Nucleic Acid [5] = assay: Binding affinity to Doubly nicked dumbbell DNA 5'-TCGAACGC/iSp18/GCTG/3Phos/-3' at 1.4 mM compound concentration and pH 8.4
Nucleic Acid [6] = assay: Binding affinity to Doubly nicked dumbbell DNA 5'-TCGAACGC/iSp18/GCTG/3Phos/-3' at 1 mM DNA concentration and pH 8.6
Nucleic Acid [7] = assay: Binding affinity to Doubly nicked dumbbell DNA 5'-TCGAACGC/iSp18/GCTG/3Phos/-3' at 1 mM DNA concentration and pH 9.2
Nucleic Acid [8] = assay: Binding affinity to Doubly nicked dumbbell DNA 5'-TCGAACGC/iSp18/GCTG/3Phos/-3' at 1.4 mM compound concentration and pH 9.2

Row | Ka (Nucleic Acid [1]) | Ka (Nucleic Acid [2]) | Ka (Nucleic Acid [3]) | Ka (Nucleic Acid [4]) | Ka (Nucleic Acid [5]) | Ka (Nucleic Acid [6]) | Ka (Nucleic Acid [7]) | Ka (Nucleic Acid [8]) | Structure (SMILES)
1 | 0.5 mM⁻¹ | 0.71 mM⁻¹ | – | – | – | – | – | – | CN(C)Cc1c(O)c(CN(C)C)c2occ(-c3ccc(O)cc3)c(=O)c2c1O
2 | – | – | 0.38 mM⁻¹ | 0.57 mM⁻¹ | 0.23 mM⁻¹ | 0.77 mM⁻¹ | 0.31 mM⁻¹ | 0.17 mM⁻¹ | O=c1c(-c2ccc(O)cc2)coc2cc(O)cc(O)c12
